Patent publication US7786141B2 (Vertex Pharmaceuticals Incorporated, priority 2004, dated 2010)
Where two headings read alike, the source gives them in different places.

Key:
M1 muscarinic receptor = biological target: T1, M1 muscarinic receptor (Homo sapiens, UniProt P11229); test: Functional mobilization of intracellular calcium (FLIPR) in M1-CHO cells; format: cell-based
T1 construct: expressed in transfected cells; host or cells: CHO (M1-CHO)
T1 sequence (P11229 1-460): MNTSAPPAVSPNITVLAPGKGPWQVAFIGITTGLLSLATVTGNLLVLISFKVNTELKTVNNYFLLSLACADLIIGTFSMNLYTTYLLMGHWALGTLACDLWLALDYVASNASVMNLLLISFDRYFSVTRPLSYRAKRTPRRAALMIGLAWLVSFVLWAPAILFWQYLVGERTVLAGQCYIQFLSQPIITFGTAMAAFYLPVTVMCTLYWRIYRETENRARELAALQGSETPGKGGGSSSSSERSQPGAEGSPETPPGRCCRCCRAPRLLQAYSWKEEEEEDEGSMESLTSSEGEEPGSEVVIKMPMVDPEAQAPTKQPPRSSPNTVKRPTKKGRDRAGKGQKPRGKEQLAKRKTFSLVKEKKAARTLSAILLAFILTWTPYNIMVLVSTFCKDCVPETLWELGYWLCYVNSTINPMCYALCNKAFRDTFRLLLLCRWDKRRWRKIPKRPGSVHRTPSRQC
How it was run: (§1)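 FLIPR Ca2+ read, ex 488/em 540 nm, 60 s. Recombinant CHO lines (M1 or M4), dye-loaded Fluo-3 AM 60-90 min at 37° C, probenecid 1 mM, pH 7.4. Agonist: compound alone; inhibition: 15 min compound pre-incubation, then carbachol at EC80 for that subtype.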

M4 muscarinic receptor = biological target: T2, M4 muscarinic receptor (Homo sapiens, UniProt P08173); test: Functional mobilization of intracellular calcium (FLIPR) in M4-CHO cells; format: cell-based
T2 construct: expressed in transfected cells; host or cells: CHO (M4-CHO)
T2 sequence (P08173 1-479): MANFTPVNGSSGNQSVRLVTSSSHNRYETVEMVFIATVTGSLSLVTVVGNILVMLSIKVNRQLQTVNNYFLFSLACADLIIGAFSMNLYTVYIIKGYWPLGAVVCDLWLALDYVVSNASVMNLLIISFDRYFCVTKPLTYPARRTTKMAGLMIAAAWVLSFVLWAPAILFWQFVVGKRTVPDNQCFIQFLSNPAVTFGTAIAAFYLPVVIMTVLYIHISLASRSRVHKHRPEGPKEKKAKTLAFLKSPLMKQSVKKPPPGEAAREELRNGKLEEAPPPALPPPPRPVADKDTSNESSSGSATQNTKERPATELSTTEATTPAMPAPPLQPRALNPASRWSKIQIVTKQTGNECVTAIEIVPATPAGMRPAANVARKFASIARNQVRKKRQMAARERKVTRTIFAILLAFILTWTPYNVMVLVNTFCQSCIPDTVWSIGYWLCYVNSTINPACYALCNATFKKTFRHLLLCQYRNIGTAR
How it was run: as §1

[1] = M1 receptor, calcium mobilization
[2] = M1 receptor, calcium mobilization, read-out: M1 Efficacy
[3] = M4 receptor, calcium mobilization
[4] = M4 receptor, calcium mobilization, read-out: M4 Efficacy
[5] = Table 4, 100% efficacy is the maximum response obtained with the Carbachol control
[6] = Table 4, modulating M1 receptor
[7] = Table 4, modulating M4 receptor
[8] = Table 4, M1 receptor, calcium mobilization (FLIPR)
[9] = Table 4, M4 receptor, calcium mobilization (FLIPR)
[10] = 100% efficacy is the maximum response obtained with the Carbachol control, Table 5

Compound | M1 Activity (M1 muscarinic receptor; [1]) | Emax (M1 muscarinic receptor; [2]) [%] | M4 Activity (M4 muscarinic receptor; [3]) | Emax (M4 muscarinic receptor; [4]) [%] | Emax (M1 muscarinic receptor; [5]) [%] | Emax (M4 muscarinic receptor; [5]) [%] | further results
CCOC(=O)N1CCC(CN2CCC3(CC2)C(=O)Nc2ccccc23)CC1 [compound 319] | xx (activity was measured to be between 0.1 μM and 1.0 μM) | < 65 | x (activity was measured to be greater than 1.0 μM) | < 65 |  |  | 
CCOC(=O)N1CCC(N2CCC3(CC2)CN(C(C)=O)c2ccc(-c4ccccc4OC)cc23)CC1 [compound 150] | xxx (activity was measured to be less than 0.1 μM) | 65 to 85 | x (activity was measured to be greater than 1.0 μM) | > 85 |  |  | 
CC(=O)N1CC2(CCN(CC3CC4CCC3CC4)CC2)c2cc(F)ccc21 (stereo not drawn) [compound 366] | xx (activity was measured to be between 0.1 μM and 1.0 μM) | < 65 | x (activity was measured to be greater than 1.0 μM) | < 65 |  |  | 
CCOC(=O)N1CCC(N2CCC3(CC2)CN(C(=O)OC)c2ccc(F)cc23)CC1 [compound 173] | xxx (activity was measured to be less than 0.1 μM) | 65 to 85 | xx (activity was measured to be between 0.1 μM and 1.0 μM) | > 85 |  |  | 
CCOC(=O)N1C2CCC1CC(N1CCC3(CC1)CN(C(=O)c1snnc1C)c1ccc(F)cc13)C2 (stereo not drawn) [compound 59] | xxx (activity was measured to be less than 0.1 μM) | < 65 | xx (activity was measured to be between 0.1 μM and 1.0 μM) | 65 to 85 |  |  | 
Clc1ccc2c(c1)C1(CCN(C3CC4CCC3C4)CC1)CN2 (stereo not drawn) [compound 224] | x (activity was measured to be greater than 1.0 μM) | 65 to 85 | x (activity was measured to be greater than 1.0 μM) | < 65 |  |  | 
O=C1CC2(CCN(C[C@@H]3C[C@H]4C=C[C@H]3C4)CC2)c2ccccc21 [compound 238] | x (activity was measured to be greater than 1.0 μM) | < 65 | x (activity was measured to be greater than 1.0 μM) | < 65 |  |  | 
CC(=O)N1CC2(CCN(C3CCN(C(=O)OC(C)C)CC3)CC2)c2ccccc21 [compound 440] |  |  |  |  | 25 to 100 | 25 to 100 | M1 Activity (M1 muscarinic receptor; [6]): xxx (activity was measured to be less than 2.0 μM); M4 Activity (M4 muscarinic receptor; [7]): xxx (activity was measured to be less than 2.0 μM)
CCOC(=O)N1C2CCC1CC(N1CCC3(CC1)CN(C(=O)c1ccncc1)c1ccc(F)cc13)C2 (stereo not drawn) [compound 308] | xxx (activity was measured to be less than 0.1 μM) | > 85 | x (activity was measured to be greater than 1.0 μM) | < 65 |  |  | 
O=C1CC2(CCN(CC3CC4C=CC3C4)CC2)c2ccc(Cl)cc21 (stereo not drawn) [compound 915] |  |  |  |  | 25 to 100 | 25 to 100 | M1 Activity (M1 muscarinic receptor; [8]): x (activity was measured to be greater than 5.0 μM); M4 Activity (M4 muscarinic receptor; [9]): x (activity was measured to be greater than 5.0 μM)
CC(C)C(=O)N(C)[C@H]1CC2(CCN(C[C@H]3C[C@H]4CC[C@H]3C4)CC2)c2ccccc21 [compound 246] | xx (activity was measured to be between 0.1 μM and 1.0 μM) | < 65 | xx (activity was measured to be between 0.1 μM and 1.0 μM) | > 85 |  |  | 
CN(C)C(=O)N[C@H]1CCC2(CCN(C3CCCCCC3)CC2)c2ccccc21 [compound 617] |  |  |  |  | 25 to 100 | > 100 | M1 Activity (M1 muscarinic receptor; [6]): xx (activity was measured to be between 2.0 μM and 5.0 μM); M4 Activity (M4 muscarinic receptor; [7]): xxx (activity was measured to be less than 2.0 μM)
CC(C)OC(=O)N1C2CCC1CC(N1CCC3(CC1)CN(C(=O)N(C)C)c1ccc(F)cc13)C2 (stereo not drawn) [compound 108] | xxx (activity was measured to be less than 0.1 μM) | 65 to 85 | xx (activity was measured to be between 0.1 μM and 1.0 μM) | < 65 |  |  | 
CCOC(=O)N1CCC(N2CCC3(CC2)CN(C(=O)C2CCC2)c2ccc(F)cc23)CC1 [compound 254] | x (activity was measured to be greater than 1.0 μM) | 65 to 85 | x (activity was measured to be greater than 1.0 μM) | 65 to 85 |  |  | 
CCOC(=O)N1CCC(N2CCCC3(CC2)CN(C(C)=O)c2ccc(F)cc23)CC1 (stereo not drawn) [compound 587] |  |  |  |  | 25 to 100 | 25 to 100 | M1 Activity (M1 muscarinic receptor; [6]): xxx (activity was measured to be less than 2.0 μM); M4 Activity (M4 muscarinic receptor; [7]): xxx (activity was measured to be less than 2.0 μM)
CS(=O)(=O)N1CC2(CCN(C3CC4CCC(C3)N4C(=O)O[C@@H]3CCOC3)CC2)c2cc(F)ccc21 (stereo partly drawn) [compound 16] | xxx (activity was measured to be less than 0.1 μM) | 65 to 85 | xxx (activity was measured to be less than 0.1 μM) | 65 to 85 |  |  | 
CC(=O)N[C@H]1CCC2(CCN(C3CCCCCC3)CC2)c2ccccc21 [compound 881] |  |  |  |  | 25 to 100 | 25 to 100 | M1 Activity (M1 muscarinic receptor; [8]): xxx (activity was measured to be less than 2.0 μM); M4 Activity (M4 muscarinic receptor; [9]): xxx (activity was measured to be less than 2.0 μM)
C#CCCOC(=O)N1C2CCC1CC(N1CCC3(CC1)CN(C(=O)N(C)C)c1ccc(F)cc13)C2 (stereo not drawn) [compound 230] | x (activity was measured to be greater than 1.0 μM) | < 65 | xx (activity was measured to be between 0.1 μM and 1.0 μM) | > 85 |  |  | 
CC(=O)N1CC2(CCN(C3CC4CCC(C4)C3)CC2)c2cc(F)ccc21 (stereo not drawn) [compound 35] | xxx (activity was measured to be less than 0.1 μM) | > 85 | xx (activity was measured to be between 0.1 μM and 1.0 μM) | > 85 |  |  | 
COc1ccccc1N1CCC(N2CCC3(CC2)CN(C(=O)N(C)C)c2ccc(F)cc23)CC1 [compound 1027] |  |  |  |  |  |  | Emax (M1 muscarinic receptor; [10]): 25 to 100%; EC50 (M1 muscarinic receptor; CHO cells expressing M1, calcium mobilization, Table 5): 2 to 10 µM; Emax (M4 muscarinic receptor; [10]): 25 to 100%; EC50 (M4 muscarinic receptor; CHO cells expressing M4, calcium mobilization, Table 5): 2 to 10 µM
COC(=O)N1CCCC(N2CCC3(CC2)CN(C(=O)N(C)C)c2ccc(F)cc23)CC1 (stereo not drawn) [compound 628] |  |  |  |  | 25 to 100 | 25 to 100 | M1 Activity (M1 muscarinic receptor; [6]): xxx (activity was measured to be less than 2.0 μM); M4 Activity (M4 muscarinic receptor; [7]): xxx (activity was measured to be less than 2.0 μM)
CCCOC(=O)N1CCC(N2CCC3(CC2)CN(CCOC)c2ccc(F)cc23)CC1 [compound 596] |  |  |  |  | 25 to 100 | 25 to 100 | M1 Activity (M1 muscarinic receptor; [6]): xxx (activity was measured to be less than 2.0 μM); M4 Activity (M4 muscarinic receptor; [7]): xxx (activity was measured to be less than 2.0 μM)
O=C1CCCN1[C@H]1CCC2(CCN([C@@H]3CC4CC[C@H]3C4)CC2)c2ccccc21 [compound 766] |  |  |  |  | 25 to 100 | 25 to 100 | M1 Activity (M1 muscarinic receptor; [6]): xxx (activity was measured to be less than 2.0 μM); M4 Activity (M4 muscarinic receptor; [7]): xxx (activity was measured to be less than 2.0 μM)
Fc1ccc2c(c1)C1(CCN(C3CCC4CCC3C4)CC1)CN2 (stereo not drawn) [compound 111] | xxx (activity was measured to be less than 0.1 μM) | 65 to 85 | xx (activity was measured to be between 0.1 μM and 1.0 μM) | < 65 |  |  | 
CCOC(=O)N1CCC(N2CCC3(CC2)CN(c2ccncc2)c2ccc(F)cc23)CC1 [compound 517] |  |  |  |  | 25 to 100 | 25 to 100 | M1 Activity (M1 muscarinic receptor; [6]): xxx (activity was measured to be less than 2.0 μM); M4 Activity (M4 muscarinic receptor; [7]): xxx (activity was measured to be less than 2.0 μM)
CCOC(=O)N1CCC(N2CCC3(CC2)CN(C(C)=O)c2c(CC)cccc23)CC1 [compound 859] |  |  |  |  | 25 to 100 | 25 to 100 | M1 Activity (M1 muscarinic receptor; [8]): x (activity was measured to be greater than 5.0 μM); M4 Activity (M4 muscarinic receptor; [9]): x (activity was measured to be greater than 5.0 μM)
CCC#CCOC(=O)N1CC[C@@H](CN2CCC3(CC2)CN(C(=O)N(C)C)c2ccc(F)cc23)C1 [compound 645] |  |  |  |  | 25 to 100 | 25 to 100 | M1 Activity (M1 muscarinic receptor; [6]): xxx (activity was measured to be less than 2.0 μM); M4 Activity (M4 muscarinic receptor; [7]): xxx (activity was measured to be less than 2.0 μM)
